In PubChem BioAssay AID1259407 (Chemical Carcinogenesis Research Information System (CCRIS), 2018):
Activity calls are given as the source filed them. No rule for the calls is given here.

Test system: CCRIS mutagenicity, Ames/micronucleus/aberration tests
Assay: CCRIS mutagenicity studies

What does the source list for `Nc1ccc(-c2ccc(N)cc2)cc1`?
mutagenic call (Test System: AMES SALMONELLA TYPHIMURIUM, Strain/Indicator: TA100, Metabolic Activation: RAT, BLADDER, S-9, PCB, Method: FLUCTUATION TEST): active; positive; mutagenic call (Test System: AMES SALMONELLA TYPHIMURIUM, Strain/Indicator: TA100, Metabolic Activation: S-9, Method: STANDARD PLATE): inactive; negative; mutagenic call (Test System: AMES SALMONELLA TYPHIMURIUM, Strain/Indicator: TA100, Metabolic Activation: TOBACCO CELL-FREE TXIMX, Method: PREINCUBATION): inactive; negative; mutagenic call (Test System: AMES SALMONELLA TYPHIMURIUM, Strain/Indicator: TA1538, Metabolic Activation: GUINEA PIG, LIVER, INTACT HEPATOCYTES, Method: PREINCUBATION): active; positive; mutagenic call (Test System: AMES SALMONELLA TYPHIMURIUM, Strain/Indicator: TA1538, Metabolic Activation: GUINEA PIG, LIVER, S-9, ACETYL COENZYME A, Method: PREINCUBATION): active; positive; mutagenic call (Test System: AMES SALMONELLA TYPHIMURIUM, Strain/Indicator: TA1538, Metabolic Activation: GUINEA PIG, LIVER, S-9, Method: PREINCUBATION): active; positive; mutagenic call (Test System: AMES SALMONELLA TYPHIMURIUM, Strain/Indicator: TA1538, Metabolic Activation: HAMSTER, LIVER, INTACT HEPATOCYTES, Method: PREINCUBATION): active; positive; mutagenic call (Test System: AMES SALMONELLA TYPHIMURIUM, Strain/Indicator: TA1538, Metabolic Activation: HAMSTER, LIVER, S-9, ACETYL COENZYME A, Method: PREINCUBATION): active; positive; mutagenic call (Test System: AMES SALMONELLA TYPHIMURIUM, Strain/Indicator: TA1538, Metabolic Activation: HAMSTER, LIVER, S-9, Method: PREINCUBATION): active; positive; mutagenic call (Test System: AMES SALMONELLA TYPHIMURIUM, Strain/Indicator: TA1538, Metabolic Activation: HAMSTER, LIVER, S-9, Method: STANDARD PLATE): active; positive; mutagenic call (Test System: AMES SALMONELLA TYPHIMURIUM, Strain/Indicator: TA1538, Metabolic Activation: RAT, LIVER, INTACT HEPATOCYTES, Method: PREINCUBATION): active; positive; mutagenic call (Test System: AMES SALMONELLA TYPHIMURIUM, Strain/Indicator: TA1538, Metabolic Activation: RAT, LIVER, S-9, ACETYL COENZYME A, Method: PREINCUBATION): active; positive; mutagenic call (Test System: AMES SALMONELLA TYPHIMURIUM, Strain/Indicator: TA1538, Metabolic Activation: RAT, LIVER, S-9, AROCLOR 1254, Method: STANDARD PLATE): active; positive; mutagenic call (Test System: AMES SALMONELLA TYPHIMURIUM, Strain/Indicator: TA1538, Metabolic Activation: RAT, LIVER, S-9, PHENOBARBITAL, Method: STANDARD PLATE): active; positive; mutagenic call (Test System: AMES SALMONELLA TYPHIMURIUM, Strain/Indicator: TA1538, Metabolic Activation: RAT, LIVER, S-9, Method: PREINCUBATION): active; positive; mutagenic call (Test System: AMES SALMONELLA TYPHIMURIUM, Strain/Indicator: YG1021, Metabolic Activation: TOBACCO CELL-FREE TXIMX, Method: PREINCUBATION): active; positive; mutagenic call (Test System: AMES SALMONELLA TYPHIMURIUM, Strain/Indicator: YG1021, Metabolic Activation: TOBACCO TX1 CELLS, Method: PREINCUBATION): active; positive; mutagenic call (Test System: AMES SALMONELLA TYPHIMURIUM, Strain/Indicator: YG1024, Metabolic Activation: HUMAN, HEPATOMA CELLS, BENZO[A]ANTHRACENE, Method: PREINCUBATION): active; positive; mutagenic call (Test System: AMES SALMONELLA TYPHIMURIUM, Strain/Indicator: YG1024, Metabolic Activation: HUMAN, HEPATOMA CELLS, Method: PREINCUBATION): active; positive; mutagenic call (Test System: AMES SALMONELLA TYPHIMURIUM, Strain/Indicator: YG1024, Metabolic Activation: PLANT CELLS, Method: PREINCUBATION): active; positive; mutagenic call (Test System: AMES SALMONELLA TYPHIMURIUM, Strain/Indicator: YG1024, Metabolic Activation: RAT, LIVER, S-9, AROCLOR 1254, Method: PREINCUBATION): active; positive; mutagenic call (Test System: AMES SALMONELLA TYPHIMURIUM, Strain/Indicator: YG1024, Metabolic Activation: RAT, LIVER, S-9, Method: PREINCUBATION): active; positive; mutagenic call (Test System: AMES SALMONELLA TYPHIMURIUM, Strain/Indicator: YG1024, Metabolic Activation: TOBACCO CELL-FREE EXTRACT, Method: PREINCUBATION): active; positive; mutagenic call (Test System: AMES SALMONELLA TYPHIMURIUM, Strain/Indicator: YG1024, Metabolic Activation: TOBACCO CELL-FREE TXIMX, Method: PREINCUBATION): active; positive; mutagenic call (Test System: AMES SALMONELLA TYPHIMURIUM, Strain/Indicator: YG1024, Metabolic Activation: TOBACCO TX1 CELLS, Method: PREINCUBATION): active; positive; mutagenic call (Test System: AMES SALMONELLA TYPHIMURIUM, Strain/Indicator: YG1026, Metabolic Activation: TOBACCO CELL-FREE TXIMX, Method: PREINCUBATION): inactive; negative; mutagenic call (Test System: AMES SALMONELLA TYPHIMURIUM, Strain/Indicator: YG1026, Metabolic Activation: TOBACCO TX1 CELLS, Method: PREINCUBATION): inactive; negative; mutagenic call (Test System: AMES SALMONELLA TYPHIMURIUM, Strain/Indicator: YG1029, Metabolic Activation: TOBACCO CELL-FREE TXIMX, Method: PREINCUBATION): active; positive; mutagenic call (Test System: AMES SALMONELLA TYPHIMURIUM, Strain/Indicator: YG1029, Metabolic Activation: TOBACCO TX1 CELLS, Method: PREINCUBATION): active; positive; mutagenic call (Test System: Ames Salmonella typhimurium, Strain/Indicator: TA98, Metabolic Activation: Rat, Liver, S-9, Sodium phenobarbitone, Method: Preincubation): active; positive, test conducted under both aerobic and anaerobic conditions.; mutagenic call (Test System: Ames Salmonella typhimurium, Strain/Indicator: TA102, Metabolic Activation: None, Method: Preincubation): inactive; negative; mutagenic call (Test System: Ames Salmonella typhimurium, Strain/Indicator: TA102, Metabolic Activation: Rat, Liver, S-9, Aroclor 1254 in 0.154 M KCl, Method: Preincubation): active; positive (coumestrol, ellagic acid, (-) epicatechin, (-) epichatechingallate, ga; mutagenic call (Test System: Ames Salmonella typhimurium, Strain/Indicator: TA102, Metabolic Activation: Rat, liver, S-9, Aroclor 1254, 4%, Method: Preincubation): active; positive; mutagenic call (Test System: Ames Salmonella typhimurium, Strain/Indicator: TA1538, Metabolic Activation: Rat, Liver, S-9, Sodium phenobarbitone, Method: Preincubation): active; positive, test conducted under both aerobic and anaerobic conditions.; mutagenic call (Test System: CHINESE HAMSTER OVARY, Strain/Indicator: CHO-K1-BH4 (HGPRT)/6-THIOGUANINE, Metabolic Activation: RAT, LIVER, S-9, Method: SUSPENSION/PLATE): inactive; negative; mutagenic call (Test System: CHINESE HAMSTER OVARY, Strain/Indicator: CHO-K1-BH4 (HGPRT), Metabolic Activation: RAT, LIVER, S-9, AROCLOR, Method: SUSPENSION/PLATE): active; positive; mutagenic call (Test System: CHINESE HAMSTER V-79, Strain/Indicator: V-79/6-THIOGUANINE, Metabolic Activation: MOUSE, LIVER, S-9, Method: SUSPENSION/PLATE): active; positive; mutagenic call (Test System: CHINESE HAMSTER V-79, Strain/Indicator: V-79/6-THIOGUANINE, Metabolic Activation: NONE, Method: SUSPENSION/PLATE): inactive; negative; mutagenic call (Test System: CHINESE HAMSTER V-79, Strain/Indicator: V-79/6-THIOGUANINE, Metabolic Activation: RAT, LIVER, S-9, AROCLOR 1254, Method: SUSPENSION/PLATE): inactive; negative; mutagenic call (Test System: CHINESE HAMSTER V-79, Strain/Indicator: V-79/6-THIOGUANINE, Metabolic Activation: RAT, LIVER, S-9, PHENOBARBITAL AND BETA-NAPHTHOFLAVONE, Method: SUSPENSION/PLATE): inactive; negative; mutagenic call (Test System: MOUSE LYMPHOMA, Strain/Indicator: L5178Y (HGPRT)/6-THIOGUANINE, Metabolic Activation: NONE, Method: SUSPENSION/PLATE): inactive; negative; mutagenic call (Test System: MOUSE LYMPHOMA, Strain/Indicator: L5178Y (HGPRT)/6-THIOGUANINE, Metabolic Activation: RAT, LIVER, S-9, AROCLOR 1254, Method: SUSPENSION/PLATE): inactive; negative; mutagenic call (Test System: MOUSE LYMPHOMA, Strain/Indicator: L5178Y (HPRT), Metabolic Activation: NONE, Method: SUSPENSION/PLATE): inactive; negative; mutagenic call (Test System: MOUSE LYMPHOMA, Strain/Indicator: L5178Y (TK+/TK-)/TRIFLUOROTHYMIDINE, Metabolic Activation: NONE, Method: SUSPENSION/PLATE): active; positive; mutagenic call (Test System: MOUSE LYMPHOMA, Strain/Indicator: L5178Y (TK+/TK-)/TRIFLUOROTHYMIDINE, Metabolic Activation: RAT, LIVER, S-9, AROCLOR 1254, Method: SUSPENSION/PLATE): active; positive; mutagenic call (Test System: MOUSE LYMPHOMA, Strain/Indicator: L5178Y (TK+/TK-), Metabolic Activation: NONE, Method: SUSPENSION/PLATE): active; positive; mutagenic call (Test System: MOUSE LYMPHOMA, Strain/Indicator: L5178Y (TK+/TK-), Metabolic Activation: RAT, LIVER, S-9, AROCLOR 1254, Method: SUSPENSION/PLATE): active; positive; mutagenic call (Test System: MOUSE LYMPHOMA, Strain/Indicator: L5178Y (TK+/TK-), Metabolic Activation: S-9, Method: SUSPENSION/PLATE): active; positive; mutagenic call (Test System: UDS RODENT HEPATOCYTES, Strain/Indicator: THY INCORP (NON-S-PHASE), Method: AUTORADIOGRAPHY): active; positive
